According to ChEMBL document CHEMBL4420076, “Amylin and calcitonin receptor agonist” (2017):
Numbered stars: 1 amine (or outer) side, 2 acyl side, 3 side chain; on linkers, the order of the positions; unused ones are H or OH. Peptide text beside a SMILES is read from it. * marks the point of attachment. C20 diacid = O=C(O)CCCCCCCCCCCCCCCCCCC(=O)*; γGlu = O=C(O)[C@H](CCC(=O)[*:2])N[*:1]; C14 diacid = O=C(O)CCCCCCCCCCCCC(=O)*

How the values were obtained:
[1] = target: T1, Amylin receptor AMY3; CALCR/RAMP3 (Homo sapiens, UniProt O60896+P30988); experiment: Agonist activity at human amylin receptor expressed in BHK570 cells co-expressing RAMP3 assessed as increase in intracellular cAMP concentration incubated for 3 hrs in absence of albumin by CRE luciferase reporter gene assay; assay type: functional, cell-based
T1 sequence (P30988 whole entry): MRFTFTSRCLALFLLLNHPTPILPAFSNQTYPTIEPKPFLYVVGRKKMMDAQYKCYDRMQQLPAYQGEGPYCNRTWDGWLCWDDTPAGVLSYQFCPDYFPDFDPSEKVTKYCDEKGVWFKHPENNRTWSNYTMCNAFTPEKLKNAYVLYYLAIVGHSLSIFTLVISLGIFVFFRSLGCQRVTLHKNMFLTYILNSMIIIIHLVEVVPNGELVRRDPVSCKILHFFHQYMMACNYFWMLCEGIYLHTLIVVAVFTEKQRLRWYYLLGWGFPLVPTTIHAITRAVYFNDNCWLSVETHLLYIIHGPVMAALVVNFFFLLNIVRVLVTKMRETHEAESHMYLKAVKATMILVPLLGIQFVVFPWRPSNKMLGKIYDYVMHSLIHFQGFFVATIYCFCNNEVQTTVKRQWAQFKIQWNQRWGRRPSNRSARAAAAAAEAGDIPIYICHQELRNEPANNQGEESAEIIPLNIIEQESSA
T1 sequence (O60896 whole entry): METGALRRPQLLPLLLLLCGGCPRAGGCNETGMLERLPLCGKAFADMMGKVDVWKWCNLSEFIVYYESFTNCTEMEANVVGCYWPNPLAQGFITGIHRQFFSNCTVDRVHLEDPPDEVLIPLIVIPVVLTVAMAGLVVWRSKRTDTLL

Calcitonin receptor [2] = target: T2, Calcitonin receptor (Homo sapiens, UniProt P30988); experiment: Agonist activity at human calcitonin receptor expressed in BHK570 cells assessed as increase in intracellular cAMP concentration incubated for 3 hrs in absence of albumin by CRE luciferase reporter gene assay; assay type: functional, cell-based
T2 sequence (P30988 whole entry): T1 sequence (P30988 whole entry)

[3] = Stability in pH 7.5 buffer assessed as lag time for fibril formation at 1 uM by Thioflavin T based fluorescence assay; assay type: physicochemical; conditions: pH 7.5, 1 µM
[4] = Stability in pH 7.5 buffer assessed as compound recovery at 1 uM by Thioflavin T based fluorescence assay; assay type: physicochemical; conditions: read-out: Drug recovery
[5] = Solubility in 100 mM glycylglycine buffer at pH 3.0 incubated for 18 hrs by UPLC analysis; assay type: physicochemical
[6] = Solubility in 100 mM glycylglycine buffer at pH 4.0 incubated for 18 hrs by UPLC analysis; assay type: physicochemical
[7] = Solubility in 100 mM bistrispropane buffer at pH 6.0 incubated for 18 hrs by UPLC analysis; assay type: physicochemical
[8] = Solubility in 100 mM glycylglycine buffer at pH 5.0 incubated for 18 hrs by UPLC analysis; assay type: physicochemical
[9] = Solubility in 100 mM bistrispropane buffer at pH 6.5 incubated for 18 hrs by UPLC analysis; assay type: physicochemical
[10] = Solubility in 100 mM bistrispropane buffer at pH 7.0 incubated for 18 hrs by UPLC analysis; assay type: physicochemical
[11] = Solubility in 100 mM bistrispropane buffer at pH 7.5 incubated for 18 hrs by UPLC analysis; assay type: physicochemical
[12] = Solubility in 100 mM bistrispropane buffer at pH 8.0 incubated for 18 hrs by UPLC analysis; assay type: physicochemical
[13] = target: T1, Amylin receptor AMY3; CALCR/RAMP3; experiment: Displacement of [125I]-labeled rat amylin from human amylin receptor expressed in BHK570 cell membranes co-expressing RAMP3 incubated for 120 mins by scintillation proximity assay
Calcitonin receptor [14] = target: T2, Calcitonin receptor; experiment: Displacement of [125I]-labeled human calcitonin from human calcitonin receptor expressed in BHK tkts13 cell membranes incubated for 1 hr by scintillation proximity assay
[15] = target: T3, Amylin receptor AMY3; CALCR/RAMP3 (Rattus norvegicus, UniProt P32214+Q9JJ73); experiment: Displacement of [125I]-labeled rat amylin from rat amylin receptor expressed in BHK tkts13 cell membranes co-expressing RAMP3 incubated for 120 mins by scintillation proximity assay
T3 sequence (P32214 whole entry): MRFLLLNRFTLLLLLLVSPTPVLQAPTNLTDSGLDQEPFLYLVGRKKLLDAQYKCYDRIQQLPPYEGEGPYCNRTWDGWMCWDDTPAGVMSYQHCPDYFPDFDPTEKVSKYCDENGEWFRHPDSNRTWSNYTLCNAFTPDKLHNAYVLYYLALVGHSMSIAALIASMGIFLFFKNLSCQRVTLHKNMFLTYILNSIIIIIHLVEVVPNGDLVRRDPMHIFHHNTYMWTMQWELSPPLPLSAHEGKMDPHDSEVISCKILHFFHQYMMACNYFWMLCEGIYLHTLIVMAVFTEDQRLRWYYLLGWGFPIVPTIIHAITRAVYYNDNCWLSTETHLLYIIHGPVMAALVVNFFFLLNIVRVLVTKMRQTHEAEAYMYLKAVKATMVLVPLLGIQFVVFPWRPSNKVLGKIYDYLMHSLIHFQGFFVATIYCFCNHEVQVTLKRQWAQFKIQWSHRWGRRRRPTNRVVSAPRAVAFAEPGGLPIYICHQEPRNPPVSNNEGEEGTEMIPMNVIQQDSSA
T3 sequence (Q9JJ73 whole entry): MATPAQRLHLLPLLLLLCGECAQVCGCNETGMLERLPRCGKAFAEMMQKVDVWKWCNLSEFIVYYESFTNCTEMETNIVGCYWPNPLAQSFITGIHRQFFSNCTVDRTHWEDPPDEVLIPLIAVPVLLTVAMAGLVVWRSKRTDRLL

Calcitonin receptor [16] = target: T2, Calcitonin receptor; experiment: Agonist activity at human calcitonin receptor expressed in BHK570 cells assessed as increase in intracellular cAMP concentration incubated for 3 hrs in presence of 10% FBS by CRE luciferase reporter gene assay; assay type: functional, cell-based
[17] = target: T1, Amylin receptor AMY3; CALCR/RAMP3; experiment: Displacement of [125I]-labeled rat amylin from human amylin receptor expressed in BHK tkts13 whole cells co-expressing RAMP3 incubated for 60 mins by scintillation proximity assay; assay type: cell-based
Rattus norvegicus [18] = experiment: Reduction in food intake in Sprague-Dawley rat at 3 nmol/kg measured 0 to 24 hrs post dose relative to control; assay type: functional; set-up: scale not given: the % may be the effect or the level left
Rattus norvegicus [19] = experiment: Reduction in food intake in Sprague-Dawley rat at 3 nmol/kg measured 24 to 48 hrs post dose relative to control; assay type: functional; set-up: scale not given: the % may be the effect or the level left

| SMILES | EC50 [1] | EC50 (Calcitonin receptor [2]) | Time [3] | remaining at 1 µM [4] | solubility at 18 h [5] | solubility at 18 h [6] | solubility at 18 h [7] | solubility at 18 h [8] | solubility at 18 h [9] | solubility at 18 h [10] | solubility at 18 h [11] | solubility at 18 h [12] | IC50 [13] | IC50 (Calcitonin receptor [14]) | IC50 [15] | EC50 (Calcitonin receptor [16]) | IC50 [17] | Activity (Rattus norvegicus [18]) | Activity (Rattus norvegicus [19]) |
| --- | --- | --- | --- | --- | --- | --- | --- | --- | --- | --- | --- | --- | --- | --- | --- | --- | --- | --- | --- |
| CC(C)C[C@H](NC(=O)[C@H](C)NC(=O)[C@H](C)NC(=O)[C@@H](NC(=O)[C@H](CO)NC(=O)[C@H](CC(C)C)NC(=O)[C@H](CCC(=O)O)NC(=O)[C@H](CO)NC(=O)[C@H](C)NC(=O)CC[C@H](NC(=O)CCCCCCCCCCCCC(=O)O)C(=O)O)[C@@H](C)O)C(=O)NCC(=O)N[C@@H](CCCNC(=N)N)C(=O)N[C@@H](CC(C)C)C(=O)N[C@@H](CO)C(=O)N[C@@H](C)C(=O)N[C@@H](CCC(=O)O)C(=O)N[C@@H](CC(C)C)C(=O)N[C@@H](Cc1cnc[nH]1)C(=O)N[C@@H](CCC(=O)O)C(=O)N[C@@H](CC(C)C)C(=O)N[C@@H](C)C(=O)N[C@H](C(=O)N[C@@H](CC(C)C)C(=O)N1CCC[C@H]1C(=O)N[C@@H](CCCNC(=N)N)C(=O)N[C@H](C(=O)N[C@@H](CCC(=O)O)C(=O)N[C@H](C(=O)NCC(=O)N[C@@H](CO)C(=O)NCC(=O)N[C@@H](CO)C(=O)N1CCC[C@H]1C(N)=O)[C@@H](C)O)[C@@H](C)O)[C@@H](C)O ({C14 diacid-γGlu}-ASELSTAALGRLSAELHELATLPRTETGSGSP-NH2) | 0.006 nM | 0.004 nM | > 45 h | 98% | ≥ 200 µM | ≥ 200 µM | ≥ 200 µM | ≥ 200 µM | ≥ 200 µM | ≥ 200 µM | ≥ 200 µM | ≥ 200 µM | 0.054 nM | 0.023 nM | 0.122 nM | – | – | – | – |
| CC(C)C[C@H](NC(=O)[C@H](C)NC(=O)[C@H](C)NC(=O)[C@@H](NC(=O)[C@H](CO)NC(=O)[C@H](CC(C)C)NC(=O)[C@H](CCC(=O)O)NC(=O)[C@H](CO)NC(=O)[C@H](C)NC(=O)CC[C@H](NC(=O)CCCCCCCCCCCCCCCCCCC(=O)O)C(=O)O)[C@@H](C)O)C(=O)NCC(=O)N[C@@H](CCCNC(=N)N)C(=O)N[C@@H](CC(C)C)C(=O)N[C@@H](CO)C(=O)N[C@@H](C)C(=O)N[C@@H](CCC(=O)O)C(=O)N[C@@H](CC(C)C)C(=O)N[C@@H](Cc1cnc[nH]1)C(=O)N[C@@H](CCC(=O)O)C(=O)N[C@@H](CC(C)C)C(=O)N[C@@H](C)C(=O)N[C@H](C(=O)N[C@@H](CC(C)C)C(=O)N1CCC[C@H]1C(=O)N[C@@H](CCCNC(=N)N)C(=O)N[C@H](C(=O)N[C@@H](CCC(=O)O)C(=O)N[C@H](C(=O)NCC(=O)N[C@@H](CO)C(=O)NCC(=O)N[C@@H](CO)C(=O)N[C@@H](Cc1cnc[nH]1)C(N)=O)[C@@H](C)O)[C@@H](C)O)[C@@H](C)O ({C20 diacid-γGlu}-ASELSTAALGRLSAELHELATLPRTETGSGSH-NH2) | 0.053 nM | 0.048 nM | > 45 h | 100% | ≥ 200 µM | ≥ 200 µM | ≥ 200 µM | ≥ 200 µM | ≥ 200 µM | ≥ 200 µM | ≥ 200 µM | ≥ 200 µM | 0.057 nM | 0.034 nM | 0.046 nM | 0.072 nM | 1.07 nM | – | – |
| CC(C)C[C@H](NC(=O)CNC(=O)[C@H](CO)NC(=O)[C@H](C)NC(=O)CC[C@H](NC(=O)CCCCCCCCCCCCCCCCCCC(=O)O)C(=O)O)C(=O)N[C@@H](CO)C(=O)N[C@H](C(=O)N[C@@H](C)C(=O)N[C@@H](C)C(=O)N[C@@H](CC(C)C)C(=O)NCC(=O)N[C@@H](CCCNC(=N)N)C(=O)N[C@@H](CC(C)C)C(=O)N[C@@H](CO)C(=O)N[C@@H](CCC(N)=O)C(=O)N[C@@H](CCC(=O)O)C(=O)N[C@@H](CC(C)C)C(=O)N[C@@H](Cc1cnc[nH]1)C(=O)N[C@@H](CCC(=O)O)C(=O)N[C@@H](CC(C)C)C(=O)N[C@@H](CCC(N)=O)C(=O)N[C@H](C(=O)N[C@@H](Cc1ccc(O)cc1)C(=O)N1CCC[C@H]1C(=O)N[C@@H](CCCNC(=N)N)C(=O)N[C@H](C(=O)N[C@@H](CCC(=O)O)C(=O)N[C@H](C(=O)NCC(=O)N[C@@H](CO)C(=O)N[C@@H](CCC(N)=O)C(=O)N[C@H](C(=O)N[C@@H](Cc1ccc(O)cc1)C(N)=O)[C@@H](C)O)[C@@H](C)O)[C@@H](C)O)[C@@H](C)O)[C@@H](C)O ({C20 diacid-γGlu}-ASGLSTAALGRLSQELHELQTYPRTETGSQTY-NH2) | 0.037 nM | 0.025 nM | > 45 h | 100% | ≥ 200 µM | ≥ 200 µM | ≥ 200 µM | – | ≥ 200 µM | ≥ 200 µM | ≥ 200 µM | ≥ 200 µM | 0.131 nM | 0.051 nM | 0.078 nM | 0.108 nM | – | 40% | 42% |
| CC(C)C[C@H](NC(=O)CNC(=O)[C@H](CO)NC(=O)[C@H](C)NC(=O)CC[C@H](NC(=O)CCCCCCCCCCCCCCCCCCC(=O)O)C(=O)O)C(=O)N[C@@H](CO)C(=O)N[C@H](C(=O)N[C@@H](C)C(=O)N[C@H](C(=O)N[C@@H](CC(C)C)C(=O)NCC(=O)N[C@@H](CCCNC(=N)N)C(=O)N[C@@H](CC(C)C)C(=O)N[C@@H](CO)C(=O)N[C@@H](CCC(N)=O)C(=O)N[C@@H](CCC(=O)O)C(=O)N[C@@H](CC(C)C)C(=O)N[C@@H](Cc1cnc[nH]1)C(=O)N[C@@H](CCC(=O)O)C(=O)N[C@@H](CC(C)C)C(=O)N[C@@H](CCC(N)=O)C(=O)N[C@H](C(=O)N[C@@H](Cc1ccc(O)cc1)C(=O)N1CCC[C@H]1C(=O)N[C@@H](CCCNC(=N)N)C(=O)N[C@H](C(=O)N[C@@H](CCC(=O)O)C(=O)N[C@H](C(=O)NCC(=O)N[C@@H](CO)C(=O)N[C@@H](CCC(N)=O)C(=O)N[C@H](C(=O)N[C@@H](Cc1ccc(O)cc1)C(N)=O)[C@@H](C)O)[C@@H](C)O)[C@@H](C)O)[C@@H](C)O)C(C)C)[C@@H](C)O ({C20 diacid-γGlu}-ASGLSTAVLGRLSQELHELQTYPRTETGSQTY-NH2) | 0.072 nM | 0.049 nM | 1.5 h | 39.5% | ≥ 200 µM | – | ≥ 200 µM | – | ≥ 200 µM | ≥ 200 µM | ≥ 200 µM | ≥ 200 µM | 0.152 nM | 0.067 nM | 0.053 nM | 0.061 nM | – | 25% | 29% |
